The values below come from paper PMC9469100, “Turning Nonselective Inhibitors of Type I Protein Arginine Methyltransferases into Potent and Selective Inhibitors of Protein Arginine Methyltransferase 4 through a Deconstruction–Reconstruction and Fragment-Growing Approach” (Journal of Medicinal Chemistry, 2022).

The target of data set [1] is PRMT3 (Homo sapiens, UniProt O60678). The experiment in a line: Radioisotope-based filter-binding (HotSpot) assay, PRMT3.
Description: (§2) Then, ^3H-SAM (final concentration 1 μM) was delivered into the reaction mixture to initiate the reaction. After incubation for 60 min at 30 °C, the reaction mixture was delivered to filter paper for detection (as assessed by scintillation). Data were analyzed using Excel and GraphPad Prism 6.0 software (GraphPad Software Inc., San Diego, CA) for IC50 curve fits using sigmoidal dose vs response-variable slope (four parameters) equations.
Data set [2] has as its target PRMT5/MEP50 complex (Homo sapiens, UniProt O14744). The experiment in a line: Radioisotope-based filter-binding (HotSpot) assay, PRMT5.
Description: as §2
Data set [3] has as its target PRMT6 (Homo sapiens, UniProt Q96LA8). The data set is described as follows: Radioisotope-based filter-binding (HotSpot) assay, PRMT6.
Description: as §2
Data set [4] deals with T1, PRMT7 (Homo sapiens, UniProt Q9NVM4).
T1 sequence (Q9NVM4 2-692): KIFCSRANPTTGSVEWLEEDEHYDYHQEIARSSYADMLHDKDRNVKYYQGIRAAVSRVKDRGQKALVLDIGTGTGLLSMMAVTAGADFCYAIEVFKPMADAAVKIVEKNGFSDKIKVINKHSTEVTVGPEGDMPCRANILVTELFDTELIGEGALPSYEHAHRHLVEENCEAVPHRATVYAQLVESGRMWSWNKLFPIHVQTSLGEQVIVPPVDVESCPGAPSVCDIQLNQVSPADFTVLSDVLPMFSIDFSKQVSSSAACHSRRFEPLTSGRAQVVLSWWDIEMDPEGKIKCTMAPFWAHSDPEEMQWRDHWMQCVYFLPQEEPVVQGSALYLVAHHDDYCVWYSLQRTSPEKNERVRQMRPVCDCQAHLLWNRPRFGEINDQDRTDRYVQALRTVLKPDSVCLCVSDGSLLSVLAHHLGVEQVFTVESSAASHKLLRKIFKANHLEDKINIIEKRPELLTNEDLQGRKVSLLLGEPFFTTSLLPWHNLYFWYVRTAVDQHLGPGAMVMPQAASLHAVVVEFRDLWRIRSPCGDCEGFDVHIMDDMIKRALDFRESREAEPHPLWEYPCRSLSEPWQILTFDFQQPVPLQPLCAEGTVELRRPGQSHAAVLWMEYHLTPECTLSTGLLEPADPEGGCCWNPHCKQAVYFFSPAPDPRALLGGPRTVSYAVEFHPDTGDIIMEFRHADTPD
The data set is described as follows: Radioisotope-based filter-binding (HotSpot) assay, PRMT7.
Description: as §2

The target of data set [5] is ΔN(1–60)-PRMT8 (Homo sapiens, UniProt Q9NR22). The data set is described as follows: Radioisotope-based filter-binding (HotSpot) assay, PRMT8.
Description: as §2
In data set [6] the target is T2, human PRMT4 (full length) (Homo sapiens, UniProt Q86X55).
T2 construct: Full-length recombinant PRMT4 (Active motif, # 81107); purchased Active motif # 81107
T2 sequence (Q86X55 1-608): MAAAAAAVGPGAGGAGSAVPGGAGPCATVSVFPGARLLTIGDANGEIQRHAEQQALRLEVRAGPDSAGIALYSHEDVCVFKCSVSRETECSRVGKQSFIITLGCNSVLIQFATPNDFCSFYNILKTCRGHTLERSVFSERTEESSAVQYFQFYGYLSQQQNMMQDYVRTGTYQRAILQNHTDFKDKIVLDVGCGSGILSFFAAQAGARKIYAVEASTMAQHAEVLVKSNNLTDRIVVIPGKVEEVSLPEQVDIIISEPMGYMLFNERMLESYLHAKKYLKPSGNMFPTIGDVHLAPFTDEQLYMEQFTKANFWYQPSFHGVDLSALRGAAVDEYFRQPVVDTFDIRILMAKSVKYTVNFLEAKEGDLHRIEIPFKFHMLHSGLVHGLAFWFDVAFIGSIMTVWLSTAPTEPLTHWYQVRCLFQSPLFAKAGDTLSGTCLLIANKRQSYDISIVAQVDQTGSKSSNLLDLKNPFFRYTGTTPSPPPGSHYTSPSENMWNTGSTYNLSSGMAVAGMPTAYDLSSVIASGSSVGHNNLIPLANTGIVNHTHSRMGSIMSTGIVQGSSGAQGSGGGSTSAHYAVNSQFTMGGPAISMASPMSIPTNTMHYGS
The data set is described as follows: SPR binding to immobilized PRMT4. As to conditions: for koff / kon: immobilized PRMT4; for kon: read-out: kon; for τR: in vitro residence time, τ = 1/koff. As for the experimental part:
To this aim, human PRMT4 (full length) was covalently immobilized on a sensor chip surface using an amine-coupling approach, and the three compounds were injected at different concentrations over the protein surface. To reduce false positives from detergent-sensitive, nonspecific aggregation-based binding, detergents (0.05% Tween-20) were added to the running buffer in all experiments.
SPR experiments were performed on a Biacore T200 biosensor (Cytiva). PBS buffer (phosphate-buffered saline, pH 7.4) supplemented with 0.05% Tween-20 was used as the running buffer. […] One flow cell was left empty for background subtractions. […] Each compound was tested in […], prepared starting from 640 to 10 nM. Binding experiments were performed at 25 °C by using a flow rate of 30 μL/min, with 90 s monitoring of association and 90 s monitoring of dissociation. Regeneration of the surfaces was performed, when necessary, by a 10 s injection of 5 mM NaOH. […] The corrected sensorgrams for each compound were fitted simultaneously using a 1:1 Langmuir model to obtain equilibrium dissociation constants (KD) and kinetic dissociation (koff) and association (kon) constants.
A general note: In SPR one partner is held on a chip, and binding of the other changes the refractive index at the surface.

Data set [7] concerns the target T3, PRMT4 (Homo sapiens, UniProt Q86X55).
T3 sequence (Q86X55 2-608): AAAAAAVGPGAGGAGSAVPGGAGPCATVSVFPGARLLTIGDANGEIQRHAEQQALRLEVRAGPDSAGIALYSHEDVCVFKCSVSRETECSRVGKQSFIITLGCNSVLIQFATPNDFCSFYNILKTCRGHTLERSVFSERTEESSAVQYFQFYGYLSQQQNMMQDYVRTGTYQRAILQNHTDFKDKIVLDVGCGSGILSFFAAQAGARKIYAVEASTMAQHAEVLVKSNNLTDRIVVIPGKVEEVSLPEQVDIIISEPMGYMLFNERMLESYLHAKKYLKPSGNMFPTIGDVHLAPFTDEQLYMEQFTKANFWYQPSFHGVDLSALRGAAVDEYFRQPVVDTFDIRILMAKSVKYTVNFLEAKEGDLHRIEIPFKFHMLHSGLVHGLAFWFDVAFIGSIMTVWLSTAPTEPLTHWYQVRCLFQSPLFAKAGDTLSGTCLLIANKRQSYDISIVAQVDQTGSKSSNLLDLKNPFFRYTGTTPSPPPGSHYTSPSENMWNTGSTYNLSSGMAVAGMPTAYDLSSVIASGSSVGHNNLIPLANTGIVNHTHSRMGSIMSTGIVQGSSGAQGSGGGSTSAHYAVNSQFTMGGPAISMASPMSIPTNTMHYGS
The experiment in a line: Radioisotope-based filter-binding (HotSpot) assay, PRMT4.
Description: as §2

Data set [8] addresses T4, ASH1L (Homo sapiens, UniProt Q9NR48).
T4 construct: ASH1L (residues 2046–2330, with an N-terminal His-tag); His (N); purchased Reaction Biology Corporation
The data set is described as follows: HotSpot KMT activity assay, ASH1L. It is filed as biochemical. How it is done:
(§1) Then, ^3H-SAM (final concentration 1 μM) was delivered into the reaction mixture to initiate the reaction. After incubation for 60 min at 30 °C, the reaction mixture was delivered to filter-paper for detection (as assessed by scintillation). […] No inhibitor control (DMSO) was considered as 100% enzyme activity. Data were analyzed using Excel and GraphPad Prism 6.0 software (GraphPad Software Inc., San Diego, CA). Values obtained for each compound are mean ± SD determined for two separate experiments.

Data set [9] in a line: Parallel artificial membrane permeability assay (PAMPA). It is filed as in vitro ADME. As to conditions: phosphate buffer pH 7.4, donor 0.2 mM, 24 h at room temperature. As for the experimental part:
A donor solution (0.2 mM) was prepared by diluting 20 mM dimethyl sulfoxide (DMSO) compound stock solution using phosphate buffer (pH 7.4, 0.01 M). Filters were coated with 5 μL of a 1% (w/v) dodecane solution of L-α-phosphatidylcholine. Donor solution (150 μL) was added to each well of the filter plate. To each well of the acceptor plate, 300 μL of solution (5% DMSO in phosphate buffer) was added. […] The sandwich was incubated for 24 h at room temperature under gentle shaking. After the incubation time, the sandwich plates were separated, and 250 μL of the acceptor plate was transferred to a UV quartz microtiter plate and measured by UV spectroscopy, using a Multiskan GO microplate spectrophotometer (Thermo Fisher Scientific) at 250–500 nm at a step of 5 nm. Reference solutions (250 μL) were prepared diluting the sample stock solutions to the same concentration as that with no membrane barrier.

Data set [10] has as its target T5, SETD8 (Homo sapiens, UniProt Q9NQR1).
T5 construct: SETD8 (residues 190–352, C-terminus); N-terminal His-tag; His (N); purchased Reaction Biology Corporation
The experiment in a line: HotSpot KMT activity assay, SETD8. It is filed as biochemical. Particulars: 10-dose mode, 3-fold dilution starting at 100 µM; read-out: ref. cmpd. IC50 (µM), SETD8. How it is done:
as §1

The mark [11] stands for this setting: read-out: IC50 (μM) PRMT3, radioisotope-based filter assay, 5 μM histone H4, 1 μM 3H-SAM.
The mark [12] stands for this setting: read-out: IC50 (μM) PRMT5, radioisotope-based filter assay, 5 μM histone H2A, 1 μM 3H-SAM.
[13] abbreviates: read-out: IC50 (μM) PRMT6, radioisotope-based filter assay, 5 μM GST-GAR, 1 μM 3H-SAM.
Where [14] appears, read: IC50 (μM) PRMT7, radioisotope-based filter assay, 5 μM GST-GAR, 1 μM 3H-SAM.
[15] abbreviates: on increasing the linker between 4-hydroxy-2-naphthoate and guanidine (values equal the ratio to the IC50 of 12c).

Like-named read-outs stand apart in the source and are kept apart here.

PRMT3, sequence (O60678 2-531): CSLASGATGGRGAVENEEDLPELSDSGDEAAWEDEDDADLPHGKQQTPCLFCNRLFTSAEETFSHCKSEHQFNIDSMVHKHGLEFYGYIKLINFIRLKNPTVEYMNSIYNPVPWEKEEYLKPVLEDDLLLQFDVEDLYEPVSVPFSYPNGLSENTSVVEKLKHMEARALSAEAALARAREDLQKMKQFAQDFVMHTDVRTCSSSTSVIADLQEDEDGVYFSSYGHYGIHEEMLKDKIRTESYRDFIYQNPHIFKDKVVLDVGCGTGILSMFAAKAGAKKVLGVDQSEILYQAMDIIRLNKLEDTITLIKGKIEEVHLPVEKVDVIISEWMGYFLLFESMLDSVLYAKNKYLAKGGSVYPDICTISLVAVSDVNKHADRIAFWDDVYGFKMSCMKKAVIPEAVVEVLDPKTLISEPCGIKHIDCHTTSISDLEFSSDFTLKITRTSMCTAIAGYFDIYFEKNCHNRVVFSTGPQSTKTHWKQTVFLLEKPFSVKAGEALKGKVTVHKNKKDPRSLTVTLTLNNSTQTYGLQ
PRMT5/MEP50 complex, sequence (O14744 2-637): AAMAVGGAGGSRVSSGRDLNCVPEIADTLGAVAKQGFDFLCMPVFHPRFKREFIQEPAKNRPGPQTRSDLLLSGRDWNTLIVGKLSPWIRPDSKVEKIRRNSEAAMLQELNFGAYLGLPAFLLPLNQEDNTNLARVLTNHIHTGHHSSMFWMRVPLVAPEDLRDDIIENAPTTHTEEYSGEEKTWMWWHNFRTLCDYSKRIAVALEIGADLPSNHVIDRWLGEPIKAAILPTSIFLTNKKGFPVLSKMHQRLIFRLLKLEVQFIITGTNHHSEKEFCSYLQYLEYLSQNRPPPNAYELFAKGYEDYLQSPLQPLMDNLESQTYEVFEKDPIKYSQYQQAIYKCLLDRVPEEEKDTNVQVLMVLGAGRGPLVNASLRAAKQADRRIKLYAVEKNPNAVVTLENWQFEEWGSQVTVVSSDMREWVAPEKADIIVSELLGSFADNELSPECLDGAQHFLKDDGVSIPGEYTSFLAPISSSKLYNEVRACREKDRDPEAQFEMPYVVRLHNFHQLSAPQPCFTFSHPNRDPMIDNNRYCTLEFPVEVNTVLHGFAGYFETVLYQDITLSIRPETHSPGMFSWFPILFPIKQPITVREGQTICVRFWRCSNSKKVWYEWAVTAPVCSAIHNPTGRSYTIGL
PRMT5/MEP50 complex, sequence (Q9BQA1 2-342 partner limits assumed): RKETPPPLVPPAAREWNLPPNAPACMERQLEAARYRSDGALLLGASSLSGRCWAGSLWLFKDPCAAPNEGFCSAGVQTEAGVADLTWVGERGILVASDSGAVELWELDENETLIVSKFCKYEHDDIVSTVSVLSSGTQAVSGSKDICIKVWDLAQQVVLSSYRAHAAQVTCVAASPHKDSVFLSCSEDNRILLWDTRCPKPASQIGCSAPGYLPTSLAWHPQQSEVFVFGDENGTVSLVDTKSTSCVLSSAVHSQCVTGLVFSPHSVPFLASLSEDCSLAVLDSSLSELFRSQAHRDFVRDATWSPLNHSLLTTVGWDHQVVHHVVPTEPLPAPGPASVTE
PRMT6, sequence (Q96LA8 2-375): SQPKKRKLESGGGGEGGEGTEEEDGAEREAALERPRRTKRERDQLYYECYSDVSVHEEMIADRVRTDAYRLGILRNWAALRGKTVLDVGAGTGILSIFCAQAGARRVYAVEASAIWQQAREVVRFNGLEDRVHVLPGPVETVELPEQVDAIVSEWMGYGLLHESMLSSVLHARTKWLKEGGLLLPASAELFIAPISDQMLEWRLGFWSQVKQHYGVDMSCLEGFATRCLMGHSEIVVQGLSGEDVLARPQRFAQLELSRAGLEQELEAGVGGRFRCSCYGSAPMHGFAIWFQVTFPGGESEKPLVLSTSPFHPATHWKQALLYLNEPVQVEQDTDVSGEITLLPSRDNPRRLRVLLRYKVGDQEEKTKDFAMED
ΔN(1–60)-PRMT8, sequence (Q9NR22 61-394, stated change not applied): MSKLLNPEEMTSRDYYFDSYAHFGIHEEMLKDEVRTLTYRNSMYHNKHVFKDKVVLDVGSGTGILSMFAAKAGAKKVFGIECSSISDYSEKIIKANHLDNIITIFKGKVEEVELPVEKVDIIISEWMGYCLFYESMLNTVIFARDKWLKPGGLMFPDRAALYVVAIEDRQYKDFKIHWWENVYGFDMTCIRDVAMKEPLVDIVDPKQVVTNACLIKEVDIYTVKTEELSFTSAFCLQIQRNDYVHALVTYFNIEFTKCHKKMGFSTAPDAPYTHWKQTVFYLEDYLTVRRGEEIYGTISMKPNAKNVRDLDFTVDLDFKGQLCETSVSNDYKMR
T5 sequence (Q9NQR1 231-393): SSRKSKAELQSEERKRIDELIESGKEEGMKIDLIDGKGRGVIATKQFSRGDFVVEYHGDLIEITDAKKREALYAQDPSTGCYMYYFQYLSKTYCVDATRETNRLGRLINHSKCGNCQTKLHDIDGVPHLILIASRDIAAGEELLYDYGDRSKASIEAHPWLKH

A word on the IC50: it is the point on the concentration scale where inhibition reaches its midpoint. `COC(=O)c1cc(O)c2cc(NC(=O)NCCCNC(=N)NC[C@H]3O[C@@H](n4cnc5c(N)ncnc54)[C@H](O)[C@@H]3O)ccc2c1` [12a, Methyl 6-(3-(3-(3-(((2R,3S,4R,5R)-5-(6-Amino-9H-purin-9-yl)-3,4-dihydroxytetrahydrofuran-2-yl)methyl)guanidino)propyl)ureido)-4-hydroxy-2-naphthoate]: the IC50 in [1] (setting [11]) is 57.2 µM; in data set [2] (setting [12]) it was 52.1 µM; in [3] (setting [13]) it was 72.8 µM; in data set [4] (setting [14]) it was 0.3 µM; in data set [4] (read-out: IC50 PRMT7 (Figure 5 heatmap), radioisotope-based filter assay) it was 0.315 µM; in data set [5] (read-out: IC50 PRMT8 (Figure 5 heatmap)), 8.29 µM.
One may read the koff as a measure of how fast the partners let go of each other. A high value points to a short-lived complex. As usually defined, the Kd is a measure of binding affinity in units of concentration. A word on the kon: it is the rate constant with which the complex forms. In turn, `COC(=O)c1cc(O)c2cc(NC(=O)NCCCCNC(=N)NC[C@H]3O[C@@H](n4cnc5c(N)ncnc54)[C@H](O)[C@@H]3O)ccc2c1` [12b, Methyl 6-(3-(4-(3-(((2R,3S,4R,5R)-5-(6-Amino-9H-purin-9-yl)-3,4-dihydroxytetrahydrofuran-2-yl)methyl)guanidino)butyl)ureido)-4-hydroxy-2-naphthoate] came in with a koff in data set [6] (SPR) of 0.015 s⁻¹. Further, the Kd in data set [6] (SPR, immobilized PRMT4, 25 °C, KD from ratio koff/kon) worked out at 2.3 µM. Besides, in data set [6] (SPR), the kon is 6520 M⁻¹ s⁻¹. The “τR” value in data set [6] is 66.7 s. The IC50 in data set [1] (setting [11]) was 43.4 µM; in data set [7] (read-out: IC50 (μM) PRMT4, radioisotope-based filter assay, 5 μM histone H3, 1 μM 3H-SAM) it was 2.14 µM; in data set [7] (read-out: IC50 PRMT4 (Figure 5 heatmap), radioisotope-based filter assay) it was 2.14 µM; in data set [2] (setting [12]) it was 76.7 µM; in data set [3] (setting [13]), greater than 100 µM; in data set [4] (read-out: IC50 (μM) PRMT7, radioisotope-based filter assay, 5 μM GST-GAR, 1 μM 3H-SAM), 0.55 µM. The IC50 in [5] (read-out: IC50 (μM) PRMT8, 5 μM histone H4, 1 μM 3H-SAM) worked out at 18.7 µM.
For `COC(=O)c1cc(O)c2cc(NC(=O)NCCCCCCNC(=N)NC[C@H]3O[C@@H](n4cnc5c(N)ncnc54)[C@H](O)[C@@H]3O)ccc2c1` [12d, Methyl 6-(3-(6-(3-(((2R,3S,4R,5R)-5-(6-Amino-9H-purin-9-yl)-3,4-dihydroxytetrahydrofuran-2-yl)methyl)guanidino)hexyl)ureido)-4-hydroxy-2-naphthoate], the affinity in [6], expressed as Kd, was 2.8 µM. The compound also registered a koff in data set [6] (SPR) of 0.76 s⁻¹. For the same compound, the kon in data set [6] (SPR) came out at 270000 M⁻¹ s⁻¹. The “τR” value in [6] was 1.31 s. Besides, the IC50 turned out to be 12.2 µM in [1] (IC50 (μM) PRMT3, radioisotope-based filter assay, 5 μM histone H4, 1 μM 3H-SAM); 12.2 µM in data set [1] (IC50 PRMT3 (Figure 5 heatmap), radioisotope-based filter assay); 0.068 µM in data set [7] (IC50 (μM) PRMT4, radioisotope-based filter assay, 5 μM histone H3, 1 μM 3H-SAM); 0.061 µM in data set [7] (IC50 PRMT4 (Figure 5 heatmap), radioisotope-based filter assay); 2.6 µM in [2]; 47 µM in data set [3]. Besides, the IC50 in data set [4] (setting [14]) was determined as 0.41 µM; in [4] (IC50 PRMT7 (Figure 5 heatmap), radioisotope-based filter assay), 0.413 µM. Further, in data set [7] (setting [15]), the “gain in the inhibitory activity against PRMT4” value worked out at 6.2 fold. For the same compound, in [2] (setting [15]), the “gain in the inhibitory activity against PRMT5” value came out at 19.8 fold.
Compound `CN1C(=O)[C@@]23C[C@]4([C@]56C[C@@]78SS[C@@](CO)(C(=O)N7[C@H]5Nc5ccccc56)N(C)C8=O)c5ccccc5N[C@@H]4N2C(=O)[C@]1(CO)SS3` [chaet, chaetocin, reference compound] had an IC50 in data set [8] of 0.14 µM.
A word on the Papp: it is the rate of passage across a membrane or cell layer, normalised by area and donor concentration. Read a high Papp as ready permeation. As for `CC(C)NCC(O)COc1cccc2ccccc12` (stereo not shown) [propranolol, reference compound], in [9], the Papp at 24 h, 0.2 mM was found to be 6 ×10⁻⁶ cm/s.
Consider `Cc1ccc(NC2=CC(=O)c3sc(C)nc3C2=O)cc1` [ryuv, ryuvidine, reference compound], for which the IC50 in data set [10] was 0.186 µM.
